Experiments:
melanoma (mouth tumor) = assay: case study, Irish Setter with melanoma, oxalic acid diet and food additive; assay type: in vivo, canine; conditions: eleven month period; diet, then oxalic acid dihydrate 1 gram down to 20 mg per day in food
[1] = case study, dog at a pound given oxalic acid dihydrate gel cap for seven days; assay type: in vivo; conditions: one gram in a gel cap one hour prior to meal time for seven days
[2] = tested on: bone cancer (sarcoma) of the left hind leg; assay: case study, Doberman pincher with bone cancer, oxalic acid enhanced dogfood; assay type: in vivo, dog
From the text: In accordance with another case study, a Doberman […] diagnosed with bone cancer (sarcoma) of the left hind leg. The dog had previously been put on medication for arthritis because it would not use or lower its left hind leg. […] A few days later, the dog began taking steps on the left hind leg with a slight limp.

low red blood cell count = assay: vitamin B6 pills in woman with low red blood cell count; assay type: in vivo, human; conditions: 50 mg pills, one a day first week then every other day; three weeks
From the text: After retirement, Turk's owner was planning to move and some friends stopped by to visit. One evening while having cocktails with the friends, they began talking about health and age, etc. […] Turk's owner's research had paid off. They gave their organic gardening magazine to the person and urged them to read the article by Judith Benn Hurley. They explained to them that the reason their red cell count was low was because of their diet. […] Their diet contained items high in oxalic acid, like spinach, their favorite salad.

[3] = tested on: fever, burning and irritation when urinating, back pain; assay: vitamin B6 pills for fever, urinary irritation, back pain attributed to oxalic acid; assay type: in vivo, human
Protocol: Then Turk's owner moved to Arkansas. His […], who is married and living nearby, worked at a local hospital. One day they began running a high fever in the range of 104° -106°, went home, and went straight to bed. The fever fell, and the next couple of days they returned to work only to have the fever return after a couple of hours. They went home and the cycle repeated. They mentioned this to a doctor in the emergency room and a series of tests were ordered looking for a virus, an infection, even a tubular conception. Turk's owner became involved, because after listening to long, sometimes whispered conversations between their spouse and stepdaughter, they asked what the trouble was. Their spouse explained what had happened and that the doctor was looking for some type of urinary tract or vaginal infection, but there were no positive cultures. […] Their stepdaughter was eating primarily salad bar meals loaded with oxalic acid.

[4] = tested on: leukemia with tumors in lymph nodes; assay: case study, leukemia with tumors in lymph nodes; assay type: in vivo, human; conditions: after 5-7 days; about 1 to 1 ½ g/day in dilute solution, almost no blockers
From the text: An adult was terminally ill with leukemia with tumors in their lymph nodes and they had stopped chemotherapy treatment. […] It was hard for them to swallow so they were on a liquid diet because of the swelling of the lymph nodes in and around their mouth and throat.

[5] = tested on: tarter or plaque, gums and mouth tissue; assay: daily use of dental hygiene composition by the inventor; assay type: in vivo, human; conditions: 150 mg diluted in 300 ml of distilled water
From the text: The inventor continued to search for other uses of the “miracle bullet” oxalic acid or oxalate compositions for treating the body and immune system. […] There was no more occasional bleeding of the gums during daily brushing, and the surface of the tongue appeared to be more smooth with an even coloring across the surface.

[6] = tested on: gingivitis, tarter and plaque; assay: daily brushing of dog's teeth with oxalic acid solution; assay type: in vivo; conditions: 150 mg in 300 ml of distilled water, one week
From the text: At the completion of the exam, rather than treat the gingivitis with an injection of antibacterial medication followed by oral medication, it was agreed the inventor would commence daily brushing of the dog's teeth. […] The inventor began a daily brushing of the dog's teeth paying particular attention to the upper gums. The brushing was done first thing in the morning before the dog had anything to eat or drink. After the fourth day of brushing, the inventor/owner of the dog, noticed the redness of the gingivitis was disappearing and after one week returned the dog to the veterinarian for a follow-up exam. […] The veterinarian recommended cleaning one side of the dogs upper teeth and continuing with the daily brushing routine.

infected torn toenail = assay: soaking of poodle's infected paw in oxalic acid solution; assay type: in vivo, dog; conditions: 150 mg in 300 ml of distilled water, after two soakings; antibiotic also given
From the text: On another occasion, the inventor's pet poodle had torn a toenail which became infected. The infection was in an advanced stage which was extremely sensitive and the poodle would not use the leg while walking. The poodle was examined by the veterinarian, received an injection of a antibiotic, and oral capsules were to be given.

[7] = tested on: cold, flu virus, sore throat; assay: mouth rinse and gargle case studies, cold, flu, sore throat; assay type: in vivo, human; conditions: rinse two minutes and gargle three times a day for four days; two cases
From the text: On another occasion while visiting the veterinary clinic, the inventor noticed the receptionist had symptoms of a cold, and upon questioning the receptionist learned […] was treating a cold which was into the start of the second week. […] The inventor advised the receptionist that, each morning immediately upon rising, and prior to any other substance being put into the mouth, they should take approximately one teaspoon of the solution in their mouth, holding it for a minimum of two minutes, swishing the solution gently around the mouth, then discarding the solution and rinsing the mouth with warm water two or three times. The procedure began Friday night and the following Monday morning the cold was gone.
The dilute solution was the bench mark solution.
On still another occasion a pharmacist, consultant to the inventor, awoke at 2:30 a.m. with a very sore throat, unable to swallow without severe pain, remembered the inventor's description of their own experience, mixed two teaspoons of the bench mark mixture and two teaspoons of warm water, held the mixture in the mouth for two minutes and gargled well. After a 15-minute wait, repeated the procedure and then retired. Upon arising at 6:30 a.m., repeated the procedure one time before leaving for the pharmacy.

viral pneumonia = assay: mouthwash procedure in viral pneumonia; assay type: in vivo, human; conditions: 150 mg in 300 ml of distilled water, rinse and gargle three times daily, Friday to Sunday; antibiotics also given
Protocol: Also, their spouse was diagnosed with viral pneumonia by X-ray examination. They were given antibiotics to ward off infections because of a weakened immune system. […] They started the recommended procedure of approximately 2 teaspoons of wash, holding in mouth for 2 minutes then gargle, spit out wash, then rinsing mouth at least twice with warm tap water. The procedure was repeated first thing in the morning immediately after rising and before anything else was put in mouth. It was done mid-day with nothing in mouth one hour prior to wash. At night, the procedure was repeated as the last item before retiring.

[8] = man; cited from earlier work
[9] = FIG. 1; cited from earlier work
[10] = canine urine oxalate count; conditions: about 1 gram per day intake; 25 Kilogram canine
[11] = after dose reduced to about 1 gram, then about 500 mg per day

## O=C(O)C(=O)O [oxalic acid dihydrate]
Melanoma (mouth tumor)
  mouth tumor size: reduced in size
[1]
  adverse effects: no adverse effects
[2]; after about 30 days on the oxalic acid diet
  pain and walking: no pain during physical exam and was walking normally
[2]; [11]
  X-ray, area affected by the sarcoma: decrease or reduction in the size of the area affected by the sarcoma
  X-ray, bone material: increase in bone material in the area of the sarcoma
[2]; within 4 days, about 2 grams added to dry dogfood
  use of left hind leg: lowered its left hind leg and used it frequently

## Cc1ncc(CO)c(CO)c1O.Cl [vitamin B6, pyridoxine hydrochloride]
Low red blood cell count
  outcome, surgery delayed by low red cell count: doctor had just scheduled their operation
[3]; after the third day
  symptoms: all symptoms were gone
[3]; other people
  back pain without muscle or spine problems: found relief
[3]; two pills, one after twelve hours, then one a day, in two days
  fever: fever was gone

## O=C(O)C(=O)O [oxalic acid, ethanedioic acid]
[4]
  tumors in lymph nodes: shrinkage of tumors in the lymph nodes
[5]
  condition of gums and mouth tissue: remarkable improvement
  tarter or plaque in the mouth: removal of and prevention of any build up of tarter or plaque
[6]
  gingivitis at follow-up exam: no more evidence of gingivitis
  tarter and plaque at follow-up exam: no tarter but moderate plaque remained
Infected torn toenail
  infection of the paw: improved dramatically
[7]
  soreness of throat and nose, flu virus: completely removes all soreness of throat and nose
Viral pneumonia
  effects of the viral pneumonia: nearly complete relief
[8]
  death after ingestion, as early as: 3 min
  death after ingestion, as late as: 14 days
[9]
  stability of solutions to radiation: decomposed by radiation
[10]
  level of oxalate in the urine: ~22000 ng/mL
